According to patent US9612238B2 (priority 2011, dated 2017):
Entries after “also recorded” stand apart in the source; their conditions may differ.

Experiments:
RML prions = format: cell-based; details: for rebound of infectivity after treatment cessation (RML): 18 days post-infection, 6 days after treatment cessation; for infection of PK1 neuroblastoma cells by RML prions (PrPSc western blot): pretreated 3 days, treated 12 days after infection, 9 and 18 days post-infection
22L prions = format: cell-based; details: for rebound of infectivity after treatment cessation (22L): 18 days post-infection, 6 days after treatment cessation; for infection of PK1 neuroblastoma cells by 22L prions (PrPSc western blot): pretreated 3 days, treated 12 days after infection, 9 and 18 days post-infection
[1] = system: cell surface PrP on N2a cells; format: cell-based
[2] = system: cell surface PrP on LD9 cells; format: cell-based; details: 24 hours
cell surface PrP = details: 1 μg/ml
[3] = system: RML scrapie-infected PK1 cells; format: cell-based; details: 1 μg/ml PIPLC, 26 hours

## COc1ccc(CCN2CCC(Nc3nc4ccccc4n3Cc3ccc(F)cc3)CC2)cc1 [Astemizole]
RML prions
  rebound of infectivity after treatment cessation (RML): no rebound of infectivity
  infection of PK1 neuroblastoma cells by RML prions (PrPSc western blot): block infection
22L prions
  rebound of infectivity after treatment cessation (22L): no rebound of infectivity
  infection of PK1 neuroblastoma cells by 22L prions (PrPSc western blot): block infection
[1]
  reduction of cell surface PrP, confirmation by secondary screening: confirmed; also recorded: active

## C[C@H]1CCC/C=C/[C@@H]2C[C@H](O)C[C@H]2[C@H](O)/C=C/C(=O)O1 [BFA, Brefeldine A]
LD9 cells
  toxicity to LD9 cells (cell viability, CELLTITER-GLO): none of the tested doses of BFA were toxic
[2]; 384-well screening plates
  PrP expression, percentage of the DMSO control: 0%

## CC[C@H]1CN2CCc3cc(OC)c(OC)cc3[C@@H]2C[C@@H]1C[C@H]1NCCc2cc(OC)c(OC)cc21 [Emetine]
[1]
  reduction of cell surface PrP, confirmation by secondary screening: active

## CC[C@@H](C(=O)[C@@H](C)[C@@H](O)[C@H](C)CCc1ccc(C)c(O)c1C(=O)O)[C@H]1O[C@](CC)([C@H]2CC[C@](O)(CC)[C@H](C)O2)C[C@@H]1C [Lasalocid sodium]
[1]
  reduction of cell surface PrP, confirmation by secondary screening: confirmed; also recorded: active

## CC[C@@]1([C@@H]2O[C@@H]([C@H]3O[C@@](O)(CO)[C@H](C)C[C@@H]3C)C[C@@H]2C)CC[C@H]([C@]2(C)CC[C@]3(C[C@H](O)[C@@H](C)[C@@H]([C@@H](C)[C@@H](OC)[C@H](C)C(=O)O)O3)O2)O1 [Monensin]
[1]
  reduction of cell surface PrP, confirmation by secondary screening: active

## C=CC[C@@H]1/C=C(\C)C[C@H](C)C[C@H](OC)[C@H]2O[C@@](O)(C(=O)C(=O)N3CCCC[C@H]3C(=O)O[C@H](/C(C)=C/[C@@H]3CC[C@@H](O)[C@H](OC)C3)[C@H](C)[C@@H](O)CC1=O)[C@H](C)C[C@@H]2OC [Tacrolimus]
RML prions
  rebound of infectivity after treatment cessation (RML): no rebound of infectivity
  infection of PK1 neuroblastoma cells by RML prions (PrPSc western blot): block infection
22L prions
  rebound of infectivity after treatment cessation (22L): no rebound of infectivity
  infection of PK1 neuroblastoma cells by 22L prions (PrPSc western blot): block infection
[1]
  reduction of cell surface PrP, confirmation by secondary screening: confirmed
[1]; at 30 (unit not given)
  reduction of PrP in the secondary assay, IN Cell analyzer quantification: 73%
  reduction of PrP in the secondary assay, flow cytometry: 75%
[2]; 20 μM
  reduction of PrP expression in the primary assay: 70%

## CCCCCCCCCCCCCCCC[N+](C)(C)C [cetrimonium]
[1]
  reduction of cell surface PrP, confirmation by secondary screening: active

## phosphatidylinositol phospholipase C [PIPLC]
Cell surface PrP
  cell surface PrP removed: approximately 50%
[3]
  RI200 (reciprocal of the cell number required to give 200 spots): 5×10^−4
[3]; from RI200 values
  inhibition of infection: 85%
